From patent US7084158B2, “Substituted propargylamines” (Bayer Cropscience S.A., priority 2001, dated 2006)

How the values were obtained:
Type in all cases: in vivo
Parameters in all cases: key: compounds were considered to be active when, at a concentration of 500 ppm or less, they had an activity on the harmful organisms of 50% or more
[1] = test system: Diabrotica undecimpunctata; experiment: Example C: corn rootworm eggs with maize corn, mortality; settings: 500 ppm or less; 4-5-day-old eggs; after 6 days
Aphis fabae = experiment: Example F: field bean dip, black bean aphid mortality; settings: 500 ppm or less; plants and aphids dipped; after 3 and 6 days
Description: Germinated field bean seeds (Vicia faba) with radicles were transferred into brown glass bottles filled with tap water and subsequently populated with approximately 100 black bean aphids (Aphis fabae). Plants and aphids were then dipped for 5 seconds into an aqueous solution of the formulated compound to be examined. After the solution had run off, plants and animals were stored in a climatized chamber (16 hours of light/day, 25° C., 40–60% relative atmospheric humidity). After 3 and 6 days of storage, the effect of the compound on the aphids was determined (mortality). The compounds of the following examples were active: 30, 43, 228, 262, 291.

Heliothis virescens = experiment: Example B: tobacco budworm eggs on filter paper/insect diet, mortality; settings: 500 ppm or less; 24-hour-old eggs dipped, diet treated; after 6 days
Meloidogyne incognita = experiment: Example H: root gall nematode larvae immobilization (contact activity); settings: 500 ppm or less; 2nd stage larvae; 6 days permanent exposure
Description: In a glass vessel, an aqueous solution of the formulated compound to be examined was added to about 3000 freshly hatched active (mobile) larvae (2nd development stage) of the root gall nematode (Meloidogyne incognita) (final volume 20 ml). After 6 days of permanent exposure of the nematode larvae, the percentage of the individual larvae immobilized by the activity of the compound was determined in comparison to the untreated controls (contact activity). The compounds of the following examples were active: 39, 52, 159, 161, 162, 163, 164, 165, 1045, 1046, 1047, 179, 183, 187, 1048, 298, 206, 208, 227, 230, 1061, 237, 238, 245, 250, 255, 256, 260, 268, 269, 274, 275, 288, 290.

Spodoptera exigua = experiment: Example S: treated L2 larvae and insect diet, sugar beet army worm mortality; settings: 500 ppm or less, after 6 days
Description: A Petri dish whose bottom was covered with filter paper and which contains about 5 ml of insect diet is prepared. Five L2 larvae of sugar beet army worm (Spodoptera exigua) were counted into a small beaker. 200 μl of an aqueous solution of the formulated compound to be examined were pipetted into the beaker. The treated larvae were then poured into the Petri dish and a further 200 μl of the aqueous solution were distributed over the insect diet. The Petri dish was closed and then stored at 25° C. in a climatized chamber. After 6 days of storage, the mortality among the larvae was determined. The following examples were active: 1036, 175, 184, 1051, 1054, 1055, 234, 1057, 1059, 1060, 1063, 243, 245, 251, 257, 259, 266, 1065, 1067, 290, 291.

Aedes aegypti = experiment: Example AG: microtiter plate, yellow fever mosquito larvicidal activity; settings: 500 ppm or less, after 3 days
Carpocapsa pomonella = experiment: Example D: dipped apples, codling moth L1 larvae mortality; settings: 500 ppm or less, after 14 days
Description: Apples were dipped into an aqueous solution of the formulated compound to be examined. The apples were then populated with 10 L1 larvae of the codling moth (Carpocapsa pomonella). After 14 days of storage at about 25° C., the effect of the compound on the larvae was determined (mortality). The compounds of the following examples were active: Nos. 14, 15, 17, 18, 70, 1007, 1008, 1009, 1036, 1038, 197.

Spodoptera littoralis [2] = experiment: Example E: cotton leaves sprayed, Egyptian cotton leafworm L2 larvae mortality; settings: 500 ppm or less, after 4 days
Description: Leaves of cotton plants were placed into a Petri dish, populated with 10 L2 larvae of the Egyptian cotton leafworm (Spodoptera littoralis) and sprayed with an aqueous solution of the formulated compound to be examined. After 4 days of storage at about 23° C., the effect of the compound on the larvae was determined (mortality). The compounds of the following examples were active: Nos. 18, 70, 1007, 1008, 1009, 1036 und 1038.

[3] = test system: Diabrotica undecimpunctata; experiment: Example AC: treated soil, southern corn rootworm eggs mortality; settings: 500 ppm or less, eggs added after 0d, 21d and 42d, after 2 weeks
Description: An aqueous solution of the formulated compound to be examined was mixed with soil. After 0d, 21d and 42d, eggs of the southern corn rootworm (Diabrotica undecimpunctata) were placed together with 2 pre-swollen maize corns into a dish, covered with the treated soil and moisted with 10 ml of water. Soil and eggs were placed in a greenhouse (23° C., 60% relative atmosphere humidity). After 2 weeks of storage, the effect of the compound on the eggs and any larvae hatched therefrom was determined (mortality). The following examples were active: 70, 60, 197, 204.

Nilaparvata lugens = experiment: Example A: rice leaf dip, leafhopper larvae mortality; settings: 500 ppm or less; L3 larvae on dipped rice plants; after 6 days
Description: The leaves of 12 rice plants having a stem length of 8 cm were dipped for 5 seconds into an aqueous solution of the formulated compound to be examined. After the solution had run off, the rice plants treated in this manner were placed into a Petri dish and populated with about 20 larvae (L3 stage) of the rice leafhopper species Nilaparvata lugens. The Petri dish was closed and then stored in a climatized chamber (16 hours of light/day, 25° C., 40–60% relative atmospheric humidity). After 6 days of storage, the mortality among the leafhopper larvae was determined. The compounds of the following examples were active: Nos. 29, 32, 42, 43, 51, 70, 84, 1002, 1004, 1005, 1040, 180, 184, 193, 197, 203, 209, 1059, 264, 265, 1066.

Spodoptera littoralis [4] = experiment: Example G: treated L2 larvae and insect diet, Egyptian cotton leafworm mortality; settings: 500 ppm or less, after 6 days
Description: A Petri dish whose bottom was covered with filter paper and which contained about 5 ml of insect diet is prepared. Five L2 larvae of the Egyptian cotton leafworm (Spodoptera littoralis) were counted into a small beaker. 200 μl of an aqueous solution of the formulated preparation to be examined were pipetted into the beaker. The treated larvae were then poured into the Petri dish, and a further 200 μl of the aqueous solution were distributed over the insect diet. The Petri dish was closed and then stored at about 25° C. in a climatized chamber. After 6 days of storage, the effect of the compound on the larvae was determined (mortality). The compounds of the following examples were active: 29, 70, 60, 159, 1005, 1040, 1042, 1044, 1045, 1046, 1047.

[5] = test system: Trialeurodes vaporariorum; experiment: Example AD: bush beans sprayed, white fly larvicidal action; settings: 500 ppm or less; bush beans sprayed after hatching; after 11 days
Description: For oviposition, bush beans (Phaseolus vulgaris) were populated for 48 hours with adults of the white fly (Trialeurodes vaporariorum). After the larvae had hatched, the plants were sprayed to run-off point with an aqueous solution of the formulated compound to be examined. After 11 days, the larvicidal action was determined. The following examples were active: 1036, 70, 60, 1040, 197.

CC1CCN(CC#Cc2ccc(-c3ccc(F)cc3)c(F)c2)CC1 [Example 228]
active: effect on the eggs and hatched larvae (mortality) [1] | effect on the aphids (mortality) (Aphis fabae)

CC1CCN(CC#Cc2ccc(-c3ccc(Cl)cc3)s2)CC1 [Example 245]
active: effect on the eggs and hatched larvae (mortality) (Heliothis virescens) | percentage of larvae immobilized (contact activity) (Meloidogyne incognita) | mortality among the larvae (Spodoptera exigua) | larvicidal activity (Aedes aegypti)

CC1CCN(CC#Cc2ccc(C#N)c(C(F)(F)F)c2)CC1 [Example 290]
active: effect on the eggs and hatched larvae (mortality) (Heliothis virescens) | effect on the eggs and hatched larvae (mortality) [1] | percentage of larvae immobilized (contact activity) (Meloidogyne incognita) | mortality among the larvae (Spodoptera exigua) | larvicidal activity (Aedes aegypti)

CC1CCN(CC#Cc2cc(C(F)(F)F)cc(C(F)(F)F)n2)CC1.CCS(=O)(=O)O [Example 1060]
active: effect on the eggs and hatched larvae (mortality) (Heliothis virescens) | effect on the eggs and hatched larvae (mortality) [1] | mortality among the larvae (Spodoptera exigua) | larvicidal activity (Aedes aegypti)

CC1CCN(CC#Cc2cc([N+](=O)[O-])cc(C(F)(F)F)c2)CC1.Cl [Example 1038]
active: effect on the eggs and hatched larvae (mortality) (Heliothis virescens) | effect on the eggs and hatched larvae (mortality) [1] | effect on the larvae (mortality) (Carpocapsa pomonella) | effect on the larvae (mortality) (Spodoptera littoralis [2])

CC1CCN(CC#Cc2ccc(C(F)(F)F)c(Cl)c2)CC1.O=C(O)/C=C/C(=O)O [Example 1008]
active: effect on the larvae (mortality) (Carpocapsa pomonella) | effect on the larvae (mortality) (Spodoptera littoralis [2])

FC(F)(F)c1cc(C#CCN2CCC(C(F)(F)F)CC2)nc(C(F)(F)F)c1 [Example 204]
active: effect on the eggs and hatched larvae (mortality) (Heliothis virescens) | effect on the eggs and hatched larvae (mortality) [1] | effect on the eggs and hatched larvae (mortality) [3]

CC1CCN(CC#Cc2cc(C(F)(F)F)cc(Cl)n2)CC1 [Example 234]
active: effect on the eggs and hatched larvae (mortality) (Heliothis virescens) | effect on the eggs and hatched larvae (mortality) [1] | mortality among the larvae (Spodoptera exigua) | larvicidal activity (Aedes aegypti)

CC1CCN(CC#Cc2ccc(C(F)(F)F)c(Cl)c2)CC1.CCCCCCCCC(=O)O [Example 1040]
active: mortality among the leafhopper larvae (Nilaparvata lugens) | effect on the eggs and hatched larvae (mortality) (Heliothis virescens) | effect on the eggs and hatched larvae (mortality) [1] | effect on the larvae (mortality) (Spodoptera littoralis [4]) | larvicidal action [5]

CC1CCN(CC#Cc2ccc(-c3ccccc3Cl)s2)CC1 [Example 243]
active: mortality among the larvae (Spodoptera exigua)

CC1CCN(CC#Cc2cc(C(F)(F)F)ccc2Cl)CC1 [Example 30]
active: effect on the eggs and hatched larvae (mortality) (Heliothis virescens) | effect on the aphids (mortality) (Aphis fabae)

Cc1cc(C)cc(-c2ccc(C#CCN3CCC(C)CC3)cc2)c1 [Example 175]
active: effect on the eggs and hatched larvae (mortality) (Heliothis virescens) | mortality among the larvae (Spodoptera exigua)

C[C@@H]1C[C@H](C)CN(CC#Cc2cc(C(F)(F)F)cc(C(F)(F)F)c2)C1 [Example 43]
active: mortality among the leafhopper larvae (Nilaparvata lugens) | effect on the eggs and hatched larvae (mortality) [1] | effect on the aphids (mortality) (Aphis fabae)

CCC1CCCN(CC#Cc2ccc(Cl)c(C(F)(F)F)c2)C1 (stereo not drawn) [Example 18]
active: effect on the eggs and hatched larvae (mortality) (Heliothis virescens) | effect on the eggs and hatched larvae (mortality) [1] | effect on the larvae (mortality) (Carpocapsa pomonella) | effect on the larvae (mortality) (Spodoptera littoralis [2])
